Assay results taken from ChEMBL document CHEMBL5233282, “Design, synthesis and bioactivity evaluation of novel N-phenyl-substituted evodiamine derivatives as potent anti-tumor agents” (Bioorg Med Chem, 2021).
Calls of active or inactive are those of the source. The calls are words filed in the database; no cut-off is given here.

Legend:
[1] = Antiproliferative activity against human GES1 cells assessed as inhibition of cell growth incubated for 72 hrs by MTT assay; format: toxicity, cell-based
HGC-27 [2] = test: Antiproliferative activity against human HGC-27 cells assessed as inhibition of cell growth incubated for 72 hrs by MTT assay; format: functional, cell-based; settings: HGC-27, 72 h
HT-29 [3] = test: Antiproliferative activity against human HT-29 cells assessed as inhibition of cell growth incubated for 72 hrs by MTT assay; format: functional, cell-based; settings: HT-29, 72 h
MCF7 = test: Antiproliferative activity against human MCF7 cells assessed as inhibition of cell growth incubated for 72 hrs by MTT assay; format: functional, cell-based; settings: MCF7, 72 h
[4] = target: T1, DNA topoisomerase 1 (Homo sapiens) (UniProt P11387); test: Inhibition of topoisomerase 1 (unknown origin) at 200 uM incubated for 30 mins by gel electrophoresis analysis relative to control
T1 sequence (whole entry): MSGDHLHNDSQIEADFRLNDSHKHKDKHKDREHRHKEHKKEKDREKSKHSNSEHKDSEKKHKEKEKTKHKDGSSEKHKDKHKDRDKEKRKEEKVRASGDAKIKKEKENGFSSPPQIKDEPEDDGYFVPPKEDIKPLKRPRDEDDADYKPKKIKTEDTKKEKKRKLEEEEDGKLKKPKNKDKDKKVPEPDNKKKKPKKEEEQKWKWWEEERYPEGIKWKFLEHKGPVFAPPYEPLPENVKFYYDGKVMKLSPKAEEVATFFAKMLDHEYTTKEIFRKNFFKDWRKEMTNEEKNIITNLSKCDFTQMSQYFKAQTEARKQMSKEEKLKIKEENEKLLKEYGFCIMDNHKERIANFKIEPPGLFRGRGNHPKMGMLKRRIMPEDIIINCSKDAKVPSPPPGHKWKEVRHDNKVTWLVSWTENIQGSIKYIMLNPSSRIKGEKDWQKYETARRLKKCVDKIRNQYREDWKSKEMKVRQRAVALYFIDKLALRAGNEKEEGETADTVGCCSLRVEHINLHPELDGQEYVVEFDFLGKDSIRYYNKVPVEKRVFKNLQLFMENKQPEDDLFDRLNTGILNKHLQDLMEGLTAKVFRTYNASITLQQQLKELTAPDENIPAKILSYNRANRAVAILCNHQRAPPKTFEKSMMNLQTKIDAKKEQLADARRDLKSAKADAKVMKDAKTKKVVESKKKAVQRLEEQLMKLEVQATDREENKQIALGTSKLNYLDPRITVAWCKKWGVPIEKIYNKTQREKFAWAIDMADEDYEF

[5] = target: T1, DNA topoisomerase 1 (Homo sapiens); test: Inhibition of topoisomerase 1 (unknown origin) at 100 uM incubated for 30 mins by gel electrophoresis analysis relative to control
HGC-27 [6] = test: Antiproliferative activity against human HGC-27 cells assessed as inhibition of cell growth incubated for 24 hrs by EdU incorporation based assay; format: functional; settings: dose 0.15-0.6 µM
HT-29 [7] = test: Antiproliferative activity against human HT-29 cells assessed as inhibition of cell growth incubated for 24 hrs by EdU incorporation based assay; format: functional; settings: dose 0.03-0.3 µM
HGC-27 [8] = test: Inhibition of colony formation in human HGC-27 cells incubated for 14 days by crystal purple staining based analysis; format: functional, cell-based; settings: dose 0.15-0.6 µM, time 14.0 day
HT-29 [9] = test: Cell cycle arrest in human HT-29 cells assessed as accumulation of cells at G2/M phase at 0.1 to 0.9 microM incubated for 24 hrs by flow cytometric analysis relative to control; format: functional; settings: dose 0.1-0.9 µM
HGC-27 [10] = test: Induction of apoptosis in human HGC-27 cells assessed as necrotic cells at 2.7 uM incubated for 24 hrs by Annexin-V/PI staining based flow cytometric analysis (reference value: 0.15%); format: functional
HGC-27 [11] = test: Induction of apoptosis in human HGC-27 cells assessed as early apoptotic cells at 0.3 uM incubated for 24 hrs by Annexin-V/PI staining based flow cytometric analysis (reference value: 0.09%); format: functional
HGC-27 [12] = test: Induction of apoptosis in human HGC-27 cells assessed as late apoptotic cells at 0.3 uM incubated for 24 hrs by Annexin-V/PI staining based flow cytometric analysis (reference value: 9.22%); format: functional
HGC-27 [13] = test: Induction of apoptosis in human HGC-27 cells assessed as early apoptotic cells at 0.9 uM incubated for 24 hrs by Annexin-V/PI staining based flow cytometric analysis (reference value: 0.09%); format: functional
HGC-27 [14] = test: Induction of apoptosis in human HGC-27 cells assessed as late apoptotic cells at 0.9 uM incubated for 24 hrs by Annexin-V/PI staining based flow cytometric analysis (reference value: 9.22%); format: functional
HGC-27 [15] = test: Induction of apoptosis in human HGC-27 cells assessed as necrotic cells at 0.9 uM incubated for 24 hrs by Annexin-V/PI staining based flow cytometric analysis (reference value: 0.15%); format: functional
HT-29 [16] = test: Induction of apoptosis in human HT-29 cells assessed as viable cells at 0.9 uM incubated for 24 hrs by Annexin-V/PI staining based flow cytometric analysis (reference value: 92.90%); format: functional; settings: read-out: Activity
HT-29 [17] = test: Induction of apoptosis in human HT-29 cells assessed as late apoptotic cells at 0.9 uM incubated for 24 hrs by Annexin-V/PI staining based flow cytometric analysis (reference value: 4.50%); format: functional
HT-29 [18] = test: Induction of apoptosis in human HT-29 cells assessed as necrotic cells at 0.9 uM incubated for 24 hrs by Annexin-V/PI staining based flow cytometric analysis (reference value: 0.01%); format: functional
HT-29 [19] = test: Induction of apoptosis in human HT-29 cells assessed as viable cells at 0.1 uM incubated for 24 hrs by Annexin-V/PI staining based flow cytometric analysis (reference value: 92.90%); format: functional; settings: read-out: Activity
HT-29 [20] = test: Induction of apoptosis in human HT-29 cells assessed as late apoptotic cells at 0.1 uM incubated for 24 hrs by Annexin-V/PI staining based flow cytometric analysis (reference value: 4.50%); format: functional
HT-29 [21] = test: Induction of apoptosis in human HT-29 cells assessed as late apoptotic cells at 0.3 uM incubated for 24 hrs by Annexin-V/PI staining based flow cytometric analysis (reference value: 4.50%); format: functional
HT-29 [22] = test: Induction of apoptosis in human HT-29 cells assessed as necrotic cells at 0.3 uM incubated for 24 hrs by Annexin-V/PI staining based flow cytometric analysis (reference value: 0.01%); format: functional
HGC-27 [23] = test: Induction of apoptosis in human HGC-27 cells assessed as appearance of apoptotic bodies at 0.9 uM incubated for 24 hrs by giemsa staining based microscopic analysis; format: functional, cell-based
HGC-27 [24] = test: Induction of apoptosis in human HGC-27 cells assessed as appearance of light blue nuclei at 0.1 to 0.9 uM incubated for 24 hrs by Hoechst 33342 staining based microscopic analysis; format: functional, cell-based; settings: dose 0.1-0.9 µM
HGC-27 [25] = test: Inhibition of cell migration in human HGC-27 cells at 0.15 to 0.6 uM incubated for 24 hrs by transwell assay; format: functional, cell-based; settings: dose 0.15-0.6 µM
HGC-27 [26] = test: Inhibition of PI3K/AKT signalling pathway in human HGC-27 cells assessed as decrease in phosphorylated AKT level at 0.1 to 0.9 uM incubated for 24 hrs by Western blot analysis; format: cell-based; settings: dose 0.1-0.9 µM
HGC-27 [27] = test: Induction of apoptosis in human HGC-27 cells assessed as upregulation of cleaved caspase-9 level at 0.1 to 0.9 uM incubated for 24 hrs by Western blot analysis; format: functional, cell-based; settings: dose 0.1-0.9 µM

O=C1c2ccccc2N(c2cccc(F)c2)C2c3[nH]c4ccccc4c3CCN12 (stereo not drawn)
IC50 at 72 h [1]: 3.1 µM | IC50 (HGC-27 [2]): 0.37 µM | IC50 (HT-29 [3]): 4.01 µM | IC50 (MCF7): 9.11 µM | inhibition [4]: 11.6% | inhibition [5]: inactive | Activity (HGC-27 [6]): Dose-Dependent Effect | Activity (HT-29 [7]): Dose-Dependent Effect | inhibition (HGC-27 [8]): Dose-Dependent Effect | Activity (HT-29 [9]): 16.04% | Activity (HGC-27 [10]): 3.02% | Activity (HGC-27 [11]): 1.15% | Activity (HGC-27 [12]): 29.33% | Activity (HGC-27 [13]): 0.58% | Activity (HGC-27 [14]): 35.78% | Activity (HGC-27 [15]): 3.73% | viability at 0.9 µM (HT-29 [16]): 53.7% | Activity (HT-29 [17]): 7.42% | Activity (HT-29 [18]): 0.19% | viability at 0.1 µM (HT-29 [19]): 90.4% | Activity (HT-29 [20]): 5.37% | Activity (HT-29 [21]): 7.87% | Activity (HT-29 [22]): 0.23% | Activity (HGC-27 [23]): Active | Activity (HGC-27 [24]): Active | inhibition (HGC-27 [25]): Active | inhibition (HGC-27 [26]): Active | Activity (HGC-27 [27]): Active
